Test results as given in ChEMBL document CHEMBL3885881, “DrugMatrix”.

Organism: Rattus norvegicus
Experiment: DrugMatrix - Regimen: Daily Repeat
Assay type: toxicity, organism-based, Sprague-Dawley
Design: regimen Daily Repeat, gender Male, age 6-8 weeks
Conditions: in vivo, sc, 22 mg/kg, route subcutaneous, dose level Low, […]; for ABSOLUTE BASOPHIL / ABSOLUTE EOSINOPHIL / ABSOLUTE LYMPHOCYTE / ABSOLUTE MONOCYTE / ABSOLUTE SEGMENTED NEUTROPHIL / BASOPHIL / EOSINOPHIL / ERYTHROCYTE COUNT / HEMATOCRIT / HEMOGLOBIN / LEUKOCYTE COUNT / LYMPHOCYTE / MEAN CORPUSCULAR HEMOGLOBIN / MEAN CORPUSCULAR HEMOGLOBIN CONCENTRATION / MEAN CORPUSCULAR VOLUME / MONOCYTE / NEUTROPHIL / NUCLEATED RED BLOOD CELLS / PLATELET COUNT: tissue Blood; for ALANINE AMINOTRANSFERASE / ALBUMIN / ALKALINE PHOSPHATASE / ASPARTATE AMINOTRANSFERASE / BLOOD UREA NITROGEN / CARBON DIOXIDE / CHLORIDE / CHOLESTEROL / CREATINE PHOSPHOKINASE / CREATININE / GLUCOSE / LACTATE DEHYDROGENASE / LIPASE / PHOSPHORUS / POTASSIUM / SODIUM / TOTAL BILIRUBIN / TOTAL PROTEIN / URIC ACID: tissue Plasma

With `O=C(O)c1ccccc1O` [SALICYLIC ACID] the “ABSOLUTE BASOPHIL” value (72 h, time 3 day) was 0 CELLS/uL, the “ABSOLUTE EOSINOPHIL” value (72 h, time 3 day) was 26.67 CELLS/uL and the “ABSOLUTE LYMPHOCYTE” value (72 h, time 3 day) was 6989.67 CELLS/uL. For the same compound, the “ABSOLUTE MONOCYTE” value (72 h, time 3 day) was 0 CELLS/uL, the “ABSOLUTE SEGMENTED NEUTROPHIL” value (72 h, time 3 day) was 550.33 CELLS/uL and the BASOPHIL (72 h, time 3 day) was 0%. The EOSINOPHIL (72 h, time 3 day) was 0.33%, the “ERYTHROCYTE COUNT” value (72 h, time 3 day) was 5.05 x10E6/uL and the HEMATOCRIT (72 h, time 3 day) was 33.17%. The HEMOGLOBIN (72 h, time 3 day) was 13.07 G/DL, the “LEUKOCYTE COUNT” value (72 h, time 3 day) was 7.57 x10E3/uL and the LYMPHOCYTE (72 h, time 3 day) was 92.33%. The “MEAN CORPUSCULAR HEMOGLOBIN” value (72 h, time 3 day) was 25.9 pg, the “MEAN CORPUSCULAR HEMOGLOBIN CONCENTRATION” value (72 h, time 3 day) was 39.43 G/DL and the “MEAN CORPUSCULAR VOLUME” value (72 h, time 3 day) was 65.6 fL. The MONOCYTE (72 h, time 3 day) was 0%, the NEUTROPHIL (72 h, time 3 day) was 7.33% and the “NUCLEATED RED BLOOD CELLS” value (72 h, time 3 day) was 0 /100WBC. The “PLATELET COUNT” value (72 h, time 3 day) was 1158.33 x10E3/uL, the “ALANINE AMINOTRANSFERASE” value (72 h, time 3 day) was 58.33 u/L and the ALBUMIN (72 h, time 3 day) was 4.43 G/DL. The “ALKALINE PHOSPHATASE” value (72 h, time 3 day) was 511.33 u/L, the “ASPARTATE AMINOTRANSFERASE” value (72 h, time 3 day) was 103 u/L and the “BLOOD UREA NITROGEN” value (72 h, time 3 day) was 13.33 mg/dL. The “CARBON DIOXIDE” value (72 h, time 3 day) was 32 mmol/L, the CHLORIDE (72 h, time 3 day) was 102 MEQ/L and the CHOLESTEROL (72 h, time 3 day) was 71 mg/dL. For the same compound, the “CREATINE PHOSPHOKINASE” value (72 h, time 3 day) was 208.67 u/L, the CREATININE (72 h, time 3 day) was 0.19 mg/dL and the GLUCOSE (72 h, time 3 day) was 141.33 mg/dL. For the same compound, the “LACTATE DEHYDROGENASE” value (72 h, time 3 day) was 161.67 u/L, the LIPASE (72 h, time 3 day) was 10 u/L and the PHOSPHORUS (72 h, time 3 day) was 12.97 mg/dL. The POTASSIUM (72 h, time 3 day) was 6.87 MEQ/L, the SODIUM (72 h, time 3 day) was 150.3 MEQ/L and the “TOTAL BILIRUBIN” value (72 h, time 3 day) was 0.2 mg/dL. The “TOTAL PROTEIN” value (72 h, time 3 day) was 6.27 G/DL, the “URIC ACID” value (72 h, time 3 day) was 0.83 mg/dL and the “ABSOLUTE BASOPHIL” value (120 h, time 5 day) was 0 CELLS/uL. For the same compound, the “ABSOLUTE EOSINOPHIL” value (120 h, time 5 day) was 207.33 CELLS/uL, the “ABSOLUTE LYMPHOCYTE” value (120 h, time 5 day) was 12679.33 CELLS/uL and the “ABSOLUTE MONOCYTE” value (120 h, time 5 day) was 80 CELLS/uL. The “ABSOLUTE SEGMENTED NEUTROPHIL” value (120 h, time 5 day) was 1400 CELLS/uL, the BASOPHIL (120 h, time 5 day) was 0% and the EOSINOPHIL (120 h, time 5 day) was 1.33%. The “ERYTHROCYTE COUNT” value (120 h, time 5 day) was 5.41 x10E6/uL, the HEMATOCRIT (120 h, time 5 day) was 34.5% and the HEMOGLOBIN (120 h, time 5 day) was 13.87 G/DL. For the same compound, the “LEUKOCYTE COUNT” value (120 h, time 5 day) was 14.37 x10E3/uL, the LYMPHOCYTE (120 h, time 5 day) was 88% and the “MEAN CORPUSCULAR HEMOGLOBIN” value (120 h, time 5 day) was 25.6 pg. For the same compound, the “MEAN CORPUSCULAR HEMOGLOBIN CONCENTRATION” value (120 h, time 5 day) was 40.23 G/DL, the “MEAN CORPUSCULAR VOLUME” value (120 h, time 5 day) was 63.73 fL and the MONOCYTE (120 h, time 5 day) was 0.67%. The NEUTROPHIL (120 h, time 5 day) was 10%, the “NUCLEATED RED BLOOD CELLS” value (120 h, time 5 day) was 0 /100WBC and the “PLATELET COUNT” value (120 h, time 5 day) was 1310 x10E3/uL. For the same compound, the “ALANINE AMINOTRANSFERASE” value (120 h, time 5 day) was 52.67 u/L, the ALBUMIN (120 h, time 5 day) was 4.17 G/DL and the “ALKALINE PHOSPHATASE” value (120 h, time 5 day) was 362.33 u/L. For the same compound, the “ASPARTATE AMINOTRANSFERASE” value (120 h, time 5 day) was 87.67 u/L, the “BLOOD UREA NITROGEN” value (120 h, time 5 day) was 16.33 mg/dL and the “CARBON DIOXIDE” value (120 h, time 5 day) was 30.33 mmol/L. For the same compound, the CHLORIDE (120 h, time 5 day) was 105.67 MEQ/L, the CHOLESTEROL (120 h, time 5 day) was 78.33 mg/dL and the “CREATINE PHOSPHOKINASE” value (120 h, time 5 day) was 263.33 u/L. For the same compound, the CREATININE (120 h, time 5 day) was 0.18 mg/dL, the GLUCOSE (120 h, time 5 day) was 153.33 mg/dL and the “LACTATE DEHYDROGENASE” value (120 h, time 5 day) was 272.67 u/L. For the same compound, the LIPASE (120 h, time 5 day) was 9 u/L, the PHOSPHORUS (120 h, time 5 day) was 13.37 mg/dL and the POTASSIUM (120 h, time 5 day) was 7.11 MEQ/L. For the same compound, the SODIUM (120 h, time 5 day) was 149.4 MEQ/L, the “TOTAL BILIRUBIN” value (120 h, time 5 day) was 0.2 mg/dL and the “TOTAL PROTEIN” value (120 h, time 5 day) was 6.07 G/DL. The “URIC ACID” value (120 h, time 5 day) was 1.5 mg/dL.
